System: vascular smooth muscle cell (SMC)
Test: Effect on proliferation of vascular smooth muscle cell (SMC), XTT assay
Type: cell-based
Conditions: 1 uM; XTT at 1, 4 and 7 days; versus untreated control, which grew until 7 days; FIG. 1
Method: As cells used in a cell culture, the vascular smooth muscle cell (SMC) which is a smooth muscle cell, and the human umbilical vein endothelial cell (HUVEC) which is the cell for promoting vascular re-endothelialization were purchased from Korea Cell Line Bank, respectively. The cell culture was performed by culturing the vascular smooth muscle cell (SMC) and the human umbilical vein endothelial cell (HUVEC) in Dulbecoco's modified eagle medium (DMEM) with 10% fetal bovine serum (FBS) under conditions of 37° C. and 5% CO2. […]
(§1) 5×10^4 of SMC cells cultured according to Example 2 were cultured in the 24-well cell culture plate and then treated with 1 uM of the peptide compound prepared by Example 2 (hereinafter, referred to as ‘EVR-P’). […] After the reaction, 200 ul of the culture medium was transferred from each well to a 96 well cell culture dish, and degree of color change was measured from absorbance at a 450 nm wavelength by a spectroscopy.
as §1, with “the known Everolimus (EVR)(LC Laboratories).” for “the peptide compound prepared by Example 2 (hereinafter, referred to as ‘EVR-P’).”, “to the” for “to a”

SMILES: CO[C@H]1C[C@@H]2CC[C@@H](C)[C@@](O)(O2)C(=O)C(=O)N2CCCC[C@H]2C(=O)O[C@H]([C@H](C)C[C@@H]2CC[C@@H](OCCO)[C@H](OC)C2)CC(=O)[C@H](C)/C=C(\C)[C@@H](O)[C@@H](OC)C(=O)[C@H](C)C[C@H](C)/C=C/C=C/C=C/1C [EVR, Everolimus]
- SMC cell proliferation (XTT, absorbance at 450 nm): cell proliferation was inhibited
